The source of these data is patent publication US6306847A, “Condensed purine derivatives” (Kyowa Hakko Kogyo Co., Ltd., priority 1996, dated 2001).

Counter-ions that a name gives are not always drawn. Like-named read-outs stand apart in the source and are kept apart here.

Data set [1] has as its target T1, human adenosine A3 receptors (Homo sapiens, UniProt P0DMS8).
T1 construct: expressed in transfected cells; host or cells: HEK293
T1 sequence (P0DMS8 1-318): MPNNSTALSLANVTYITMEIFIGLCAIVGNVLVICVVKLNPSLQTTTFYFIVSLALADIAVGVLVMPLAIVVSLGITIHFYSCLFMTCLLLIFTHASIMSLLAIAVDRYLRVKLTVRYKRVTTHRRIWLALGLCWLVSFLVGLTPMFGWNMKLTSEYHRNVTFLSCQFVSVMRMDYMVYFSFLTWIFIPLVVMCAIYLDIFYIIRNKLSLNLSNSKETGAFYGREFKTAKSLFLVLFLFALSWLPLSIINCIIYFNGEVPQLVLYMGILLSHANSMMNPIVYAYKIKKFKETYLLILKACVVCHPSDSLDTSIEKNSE
In words: Test of adenosine A3 receptor binding ([125I]AB-MECA, transfected HEK293 cell homogenate). Particulars: for inhibition at 0.1 µM: read-out: The rate of inhibition (%) 10^-7 M; for inhibition at 0.01 µM: read-out: The rate of inhibition (%) 10^-8 M. The protocol:
The transfected HEK293 cells that expressed the human adenosine A3 receptors were homogenized in 5 mM tris(hydroxymethyl)aminomethane hydrochloric acid buffer containing 5 mM magnesium chloride (pH 7.6) by a Teflon homogenizer (Iuchiseieido Corp.). The resultant suspension was centrifuged (4000×g, 20 minutes), and a 50 mM tris(hydromethyl)aminomethane/10 mM magnesium chloride/hydrochloric acid buffer (pH 7.6) (referred to as "the Tris-HCl buffer" hereinafter) was added to the precipitate to generate the cell suspension ( the protein concentration 0.25 mg/ml). To the cell suspension was added adenosine deaminase so that the concentration was 2 U/ml, and the resultant mixture was used in the following binding experiment.
The glass fiber filter was transferred to a polypropylene tube, and the radioactivity was measured by a gamma counter (Packard Corp.).
(Rate of inhibition)=(A-B)/(C-D)×100
A: Amount of binding in the presence of the test compound
B: Amount of non-specific binding
C: Amount of total binding
D: Amount of non-specific binding

The test system of data set [2] is compound 48/80 induced pruritic action. Kind of data set: Test of inhibition of compound 48/80 induced pruritic action (scratching behavior in mice). Format: in vivo, ddy mice. Particulars: for (A) The number of scratching behavior/10 minutes: compound 48/80 0.5 mg/kg s.c., n=10; for (B) The rate of inhibition (%): number of scratching behavior relative to control group. The protocol:
A group consisting of 10 ddy mice (Japanese SLC) having a body weight of […] was used in the test. After compound 5 was orally administered, 0.5 mg/kg of compound 48/80 was subcutaneously administered in a volume of 0.1 ml per 20 g. 10 minutes after administration of compound 48/80, the number of scratching behavior was measured for 10 minutes. The rate of inhibition of the group of mice administered with compound 5 relative to the number of scratching behavior of a control group was calculated, and ED50 was calculated from the rate of inhibition.

Data set [3] concerns ddY mice. Particulars: mouse, in vivo. The text has this:
A group consisting of three ddY mice (Japanese SLC) having a body weight of 19 to 21 g was used. One week after oral administration of compound 5, death of the mice was observed.

Setting [4] is: 10^-7 M test compound, [125I]AB-MECA 0.1 nM.
Setting [5] is: 10^-8 M test compound, [125I]AB-MECA 0.1 nM.

As usually defined, the inhibition is the relative decrease from the control value, in per cent. On to `CCOC(=O)/C=C/c1ccc(-c2nc3c([nH]2)C2=NCCCN2C(=O)N3CC)cc1` [Compound 14, Ethyl (E)-4-(4-ethyl-1,4,5,7,8,9-hexahydropyrimido [2,1-i]purine-5-one-2-yl)cinnamate], for which the inhibition at 0.1 µM in data set [1] (setting [4]) is 55%. For the same molecule, the inhibition at 0.01 µM in data set [1] (setting [5]) was 29%.

Usually ED50 stands for the midpoint of the dose-response relation. Consider `CCCN1C(=O)N2CCN=C2c2[nH]c(-c3ccc(Br)cc3)nc21.Cl` [Compound 5, 2-(p-Bromophenyl)-4-propyl-1,4,7,8-tetrahydro-5H-imidazo [2,1-i]purine-5-one hydrochloride], for which the figures for the “(A) The number of scratching behavior/10 minutes” value in data set [2] (30 mg/kg p.o.), in data set [2] (100 mg/kg p.o.) and in data set [2] (300 mg/kg p.o.) were 10.70 ± 4.45 /10 minutes, 7.60 ± 3.12 /10 minutes and 6.00 ± 2.88 /10 minutes, respectively. Further, the “(B) The rate of inhibition (%)” value in data set [2] (30 mg/kg p.o.) is reported as 34.0%; in data set [2] (100 mg/kg p.o.), 53.1%; in data set [2] (300 mg/kg p.o.), 63.0%. Besides, the ED50 in data set [2] (Mus musculus, po, calculated from the rate of inhibition) is 96.8 mg/kg. The “inhibitory action on the compound 48/80 induced itching” value in data set [2] (p.o., mice) is listed as “exhibited its inhibitory action”. Moreover, the “death of the mice” value in data set [3] is “no death was observed”.

Take `CCCN1C(=O)N2CCCN=C2c2[nH]c(-c3ccc(Br)cc3)nc21` [Compound 6, hydrochloride]: in data set [1] (setting [5]), the inhibition at 0.01 µM is 98%.

In the case of `CCC1CN2C(=O)N(C)c3nc(-c4ccc(Br)cc4)[nH]c3C2=N1` (centres unmarked) [Compound 25, 2-(p-Bromophenyl)-8-ethyl-4-methyl-1,4,7,8-tetrahydro-5H-imidazo[2,1-i]purine-5-one hydrochloride], in data set [1], the inhibition at 0.1 µM worked out at 97% and the inhibition at 0.01 µM turned out to be 94%.

In the case of `CCC1CN2C(=O)N(CC)c3nc(-c4ccc(/C=C/C(=O)O)cc4)[nH]c3C2=N1` (centres unmarked) [Compound 17, (E)-4-(4,8-Diethyl-1,4,7,8-tetrahydro-5H-imidazo [2,1-i]-purine-5-one-2-yl)cinnamic acid], the inhibition at 0.1 µM in data set [1] (setting [4]) turned out to be 70%. Moreover, the inhibition at 0.01 µM in data set [1] (setting [5]) is 36%.

For `CCCCN1C(=O)N2CCN=C2c2[nH]c(-c3ccc(Br)cc3)nc21` [Compound 26, 2-(p-Bromophenyl)-4-n-butyl-1,4,7,8-tetrahydro-5H-imidazo[2,1-i]purine-5-one hydrochloride], the inhibition at 0.01 µM in data set [1] amounted to 85%.

Consider `CCCN1C(=O)N2C[C@H](C(C)C)N=C2c2[nH]c(-c3ccc(Br)cc3)nc21` [Compound 33, (S)-2-(p-Bromophenyl)-8-isopropyl-4-propyl-1,4,7,8-tetrahydro-5H-imidazo[2,1-i]purine-5-one], for which the inhibition at 0.1 µM in data set [1] (setting [4]) came out at 95%. In data set [1] (setting [5]), the inhibition at 0.01 µM was found to be 89%.

As for `CCN1C(=O)N2CCCN=C2c2[nH]c(-c3ccc(Br)cc3)nc21` [Compound 2, 2-(p-Bromophenyl)-4-ethyl-1,4,5,7,8,9-hexahydropyrimido [2,1-i]purine-5-onehydrochloride], the inhibition at 0.1 µM in data set [1] (setting [4]) amounted to 55%. Also, the inhibition at 0.01 µM in data set [1] (setting [5]) came to 29%.

`CCOC(=O)/C=C/c1ccc(-c2nc3c([nH]2)C2=NC(CC)CN2C(=O)N3CC)cc1` (centres unmarked) [Compound 16, Ethyl (E)-4-(4,8-diethyl-1,4,7,8-tetrahydro-5H-imidazo-[2,1-i]purine-5-one-2-yl)cinnamate]: the inhibition at 0.1 µM in data set [1] (setting [4]) was 92%. Further, in data set [1] (setting [5]), the inhibition at 0.01 µM came out at 17%.

As to `CCN1C(=O)N2CCN=C2c2[nH]c(-c3ccc(Br)cc3)nc21` [Compound 1, 2-(p-Bromophenyl)-4-ethyl-1,4,7,8-tetrahydro-5H-imidazo[2,1-i]purine-5-one hydrochloride], in data set [1], the inhibition at 0.1 µM was 97% and the inhibition at 0.01 µM amounted to 88%.

For the molecule `CCCN1C(=O)N2CC(CC)N=C2c2[nH]c(-c3ccc(Br)cc3)nc21` (centres unmarked) [Compound 8, 2-(p-Bromophenyl)-8-ethyl-4-propyl-1,4,7,8-tetrahydro-5H-imidazo[2,1-i]purine-5-one hydrochloride], in data set [1], the inhibition at 0.1 µM was 96%.

As for `CCCN1C(=O)N2C[C@@H](C(C)C)N=C2c2[nH]c(-c3ccc(Br)cc3)nc21` [Compound 32, (R)-2-(p-Bromophenyl)-8-isopropyl-4-propyl-1,4,7,8-tetrahydro-5H-imidazo[2,1-i]purine-5-one], the inhibition at 0.1 µM in data set [1] (setting [4]) amounted to 120%. Also, the inhibition at 0.01 µM in data set [1] (setting [5]) was 84%.

Consider `CCN1C(=O)N2CCCN=C2c2[nH]c(-c3ccc(/C=C/C(=O)O)cc3)nc21` [Compound 15, (E)-4-(4-Ethyl-1,4,5,7,8,9-hexahydropyrimido [2,1-i]-purine-5-one-2-yl)cinnamic acid], for which the inhibition at 0.1 µM in data set [1] (setting [4]) was found to be 66%. In addition, in data set [1] (setting [5]), the inhibition at 0.01 µM worked out at 21%.

With `CCOC(=O)/C=C/c1ccc(-c2nc3c([nH]2)C2=NCCN2C(=O)N3CC)cc1` [Compound 13, Ethyl (E)-4-(4-ethyl-1,4,7,8-tetrahydro-5H-imidazo [2,1-i]purine-5-one-2-yl)cinnamate], in data set [1] (setting [4]), the inhibition at 0.1 µM turned out to be 76%. Further, in data set [1] (setting [5]), the inhibition at 0.01 µM stood at 75%.

Turning to `CCN1C(=O)N2CC(C)N=C2c2[nH]c(-c3ccc(Br)cc3)nc21` (centres unmarked) [Compound 3, 2-(p-Bromophenyl)-4-ethyl-8-methyl-1,4,7,8-tetrahydro-5H-imidazo [2,1-i]-purine-5-one hydrochloride], in data set [1], the inhibition at 0.1 µM is 96% and the inhibition at 0.01 µM was 65%.

Regarding `CCCN1C(=O)N2C[C@@H](c3ccccc3)N=C2c2[nH]c(-c3ccc(Br)cc3)nc21` [Compound 35, (R)-2-(p-Bromophenyl)-8-phenyl-4-propyl-1,4,7,8-tetrahydro-5H-imidazo[2,1-i]-purine-5-one], the inhibition at 0.1 µM in data set [1] (setting [4]) came to 52%. Further, in data set [1] (setting [5]), the inhibition at 0.01 µM was 94%.

As to `CCC1CN2C(=O)N(CC)c3nc(-c4ccc(Br)cc4)[nH]c3C2=N1` (centres unmarked) [Compound 4, 2-(p-Bromophenyl)-4,8-diethyl-1,4,7,8-tetrahydro-5H-imidazo[2,1-i]purine-5-one hydrochloride], in data set [1], the inhibition at 0.1 µM worked out at 90% and the inhibition at 0.01 µM was 73%.
